Target: T1, KRAS G12C 1-169, his-tagged protein, GDP-loaded (Homo sapiens, UniProt P01116, G12C)
T1 construct: KRAS G12C 1-169, his-tagged protein, GDP-loaded
Experiment: KRAS G12C covalent binding (% modification) by mass spectrometry, ten or three minute incubation
Protocol: Test compounds were prepared as 10 mM stock solutions in DMSO (Fisher cat #BP-231-100). KRAS G12C 1-169, his-tagged protein, GDP-loaded was diluted to […] in buffer (20 mM Hepes, 150 mM NaCl, 1 mM MgCl2). Compounds were tested for activity as follows:
Compounds were diluted to 50× final test concentration in DMSO in 96-well storage plates. Compound stock solutions were vortexed before use and observed carefully for any sign of precipitation. Dilutions were as follow: • For 100 μM final compound concentration, compounds were diluted to 5000 μM (5 μl 10 mM compound stock+5 μl DMSO and mixed well by pipetting. • For 30 μM final compound concentration, compounds were diluted to 1500 μM (3 μl 10 mM compound stock+17 μl DMSO) and mixed well by pipetting. • For 10 μM final compound concentration, compounds were diluted to 500 μM (2 μl 10 mM compound stock+38 μl DMSO) and mixed well by pipetting. 49 μl of the stock protein solution was added to each well of a 96-well PCR plate (Fisher cat #1423027). 1 μl of the diluted 50× compounds were added to appropriate wells in the PCR plate using 12-channel pipettor. Reactions were mixed carefully and thoroughly by pipetting up/down with a 200 μl multi-channel pipettor. […] 5 μl of 2% formic acid (Fisher cat #A117) in DI H2O was then added to each well followed by mixing with a pipette. The plate was then resealed with aluminum seal and stored on dry ice until analyzed as described below.
The above described assays were analyzed by mass spectrometry according to one of the following two procedures:
The MS instrument is set to positive polarity, 2 GHz resolution, and low mass (1700) mode and allowed to equilibrate for 30 minutes. The instrument is then calibrated, switched to acquisition mode and the appropriate method loaded.
After another 30 minute equilibration time, a blank batch (i.e., buffer) is run to ensure equipment is operating properly. The samples are thawed at 37° C. for 10 minutes, briefly centrifuged, and transfer to the bench top. Wells A1 and H12 are spiked with 1 μL 500 μM internal standard peptide, and the plates centrifuged at 2000×g for 5 minutes. The method is then run and masses of each individual well recorded.
The masses (for which integration data is desired) for each well are pasted into the platemap and exported from the analysis. Masses for the internal standards are exported as well. The data at 50 ppm is extracted for the +19 charge state, and identity of well A1 is assigned using the internal standard spike and integrated. Peak data is exported as a TOF list and the above steps are repeated individually, for the +20, 21, 22, 23, 24, and 25 charge states.
The masses and peak intensities of KRAS G12C protein species were measured using a Dionex RSLCnano system (Thermo Scientific) connected to a Q Exactive Plus mass spectrometer (Thermo Scientific).
[…] of sample was each loaded onto a Aeris™ 3.6 μm WIDEPORE C4 200 Å, LC Column 50×2.1 mm column maintained at 40° C. at a flow rate of 600 μl min^−1 with […] (0.1% formic acid in acetonitrile). The liquid chromatography conditions were 20% solvent B for 1 min, 20% to 60% solvent B for 1.5 min, 60% to 90% solvent for 0.5 min, 90% solvent B for 0.2 min, 90% to 20% solvent B for 0.2 min, and then equilibrated for 1.6 min before the following sample injection. The flow rate was maintained at 600 μl min^−1 throughout the sample analysis.
The mass spectrometer was operated in profile mode at a resolution of 17500, 5 microscans, using 50 msec max injection time and an AGC target of 1e6, and a full mass range from 800-1850 m/z was recorded. The HCD trapping gas was optimized for maximum sensitivity for intact proteins. The ionization method was electrospray ionization, which used a spray voltage of 4 kV, sheath gas flow set to 50 au, auxiliary gas flow set to 10 au and sweep gas flow set to 1 au. […]

[1] = covalent binding to KRAS G12C, % modification after a three minute incubation period
[2] = covalent binding to KRAS G12C after a ten minute incubation period

| Compound | Binding % [1] | Binding % [2] |
| --- | --- | --- |
| 1-((2R,5S)-4-(6-chloro-2-(2-(diethylamino)ethoxy)-8-fluoro-7-((S)-6-methyl-1H-indazol-7-yl)quinazolin-4-yl)-2,5-dimethylpiperazin-1-yl)prop-2-en-1-one [Compound 157] | + (+ indicates binding activity greater than 0% and up to 50%) |  |
| C=CC(=O)N1C[C@H](C)N(c2nc(N3CC(N(C)C)C3)nc3c(F)c(-c4c(O)cccc4F)c(Cl)cc23)C[C@H]1C (atropisomer, axis not shown) [Compound 53, 1-((2R,5S)-4-((R)-6-chloro-2-(3-(dimethylamino)azetidin-1-yl)-8-fluoro-7-(2-fluoro-6-hydroxyphenyl)quinazolin-4-yl)-2,5-dimethylpiperazin-1-yl)prop-2-en-1-one] |  | ++ (++ indicates binding activity from 50 to 90%) |
| C=CC(=O)N1CCN(c2nc(N3CC(N(C)C)C3)nc3c(F)c(-c4c(O)cccc4F)c(Cl)cc23)C[C@H]1C (atropisomer, axis not shown) [Compound 61, 1-((R)-4-((R)-6-chloro-2-(3-(dimethylamino)azetidin-1-yl)-8-fluoro-7-(2-fluoro-6-hydroxyphenyl)quinazolin-4-yl)-2-methylpiperazin-1-yl)prop-2-en-1-one] |  | ++ (++ indicates binding activity from 50 to 90%) |
| C=CC(=O)N1C[C@H](C)N(c2nc(N3CC(N(C)C)C3)nc3c(F)c(-c4c(C)ccc5cn[nH]c45)c(Cl)cc23)C[C@H]1C (atropisomer, axis not shown) [Compound 73, 1-((2R,5S)-4-((S)-6-chloro-2-(3-(dimethylamino)azetidin-1-yl)-8-fluoro-7-(6-methyl-1H-indazol-7-yl)quinazolin-4-yl)-2,5-dimethylpiperazin-1-yl)prop-2-en-1-one] |  | ++ (++ indicates binding activity from 50 to 90%) |
| C=CC(=O)N1C[C@H](C)N(c2nc(OCCN(CC)CC)nc3c(F)c(-c4c(O)cccc4F)c(Cl)cc23)C[C@H]1C (atropisomer, axis not shown) [Compound 74, 1-((2R,5S)-4-((R)-6-chloro-2-(2-(diethylamino)ethoxy)-8-fluoro-7-(2-fluoro-6-hydroxyphenyl)quinazolin-4-yl)-2,5-dimethylpiperazin-1-yl)prop-2-en-1-one] |  | ++ (++ indicates binding activity from 50 to 90%) |
| C=CC(=O)N1C[C@H](C)N(c2nc(OCCN3CC(F)(F)C3)nc3c(F)c(-c4c(O)cccc4F)c(Cl)cc23)C[C@H]1C (atropisomer, axis not shown) [Compound 84, 1-((2R,5S)-4-((S)-6-chloro-2-(2-(3,3-difluoroazetidin-1-yl)ethoxy)-8-fluoro-7-(2-fluoro-6-hydroxyphenyl)quinazolin-4-yl)-2,5-dimethylpiperazin-1-yl)prop-2-en-1-one] |  | +++ (+++ indicates binding activity greater than 90%) |
| C=CC(=O)N1C[C@H](C)N(c2nc(OCCN3CC(F)(F)C3)nc3c(F)c(-c4c(O)cccc4F)c(Cl)cc23)C[C@H]1C (atropisomer, axis not shown) [Compound 90, 1-((2R,5S)-4-(6-chloro-2-(2-(3,3-difluoroazetidin-1-yl)ethoxy)-8-fluoro-7-((S)-2-fluoro-6-hydroxyphenyl)quinazolin-4-yl)-2,5-dimethylpiperazin-1-yl)prop-2-en-1-one] | ++ (++ indicates binding activity from 50 to 90%) |  |
| C=CC(=O)N1C[C@H](C)N(c2nc(N3CC(N(C)C)C3)nc3c(F)c(-c4c(C)ccc5[nH]ncc45)c(Cl)cc23)C[C@H]1C (atropisomer, axis not shown) [Compound 130, 1-((2R,5S)-4-(6-chloro-2-(3-(dimethylamino)azetidin-1-yl)-8-fluoro-7-((R)-5-methyl-1H-indazol-4-yl)quinazolin-4-yl)-2,5-dimethylpiperazin-1-yl)prop-2-en-1-one] | +++ (+++ indicates binding activity greater than 90%) |  |
| [2H]C([2H])([2H])N(C1CN(c2nc(N3C[C@@H](C)N(C(=O)C=C)C[C@@H]3C)c3cc(Cl)c(-c4c(O)cccc4F)c(F)c3n2)C1)C([2H])([2H])[2H] (atropisomer, axis not shown) [Compound 207, 1-((2R,5S)-4-(2-(3-(bis(tridueteromethyl)amino)azetidin-1-yl)-6-chloro-8-fluoro-7-((S)-2-fluoro-6-hydroxyphenyl)quinazolin-4-yl)-2,5-dimethylpiperazin-1-yl)prop-2-en-1-one] | +++ (+++ indicates binding activity greater than 90%) |  |
| [2H]C([2H])([2H])N(C1CN(c2nc(N3C[C@@H](C)N(C(=O)C=C)C[C@@H]3C)c3cc(Cl)c(-c4c(O)cccc4F)c(F)c3n2)C1)C([2H])([2H])[2H] (atropisomer, axis not shown) [Compound 212, 1-((2R,5S)-4-(2-(3-(bis(tridueteromethyl)amino)azetidin-1-yl)-6-chloro-8-fluoro-7-((R)-2-fluoro-6-hydroxyphenyl)quinazolin-4-yl)-2,5-dimethylpiperazin-1-yl)prop-2-en-1-one] | + (+ indicates binding activity greater than 0% and up to 50%) |  |
| [2H]C([2H])([2H])N(C1CN(c2nc(N3C[C@@H](C)N(C(=O)C=C)C[C@@H]3C)c3cc(Cl)c(-c4c(C)ccc5[nH]ncc45)c(F)c3n2)C1)C([2H])([2H])[2H] (atropisomer, axis not shown) [Compound 226, 1-((2R,5S)-4-(6-chloro-2-(3-(bis(tridueteromethyl)amino)azetidin-1-yl)-8-fluoro-7-((R)-5-methyl-1H-indazol-4-yl)quinazolin-4-yl)-2,5-dimethylpiperazin-1-yl)prop-2-en-1-one] | +++ (+++ indicates binding activity greater than 90%) |  |
| C=CC(=O)N1C[C@H](C)N(c2nc(OCCn3ccnc3)nc3c(F)c(-c4c(O)cccc4F)c(Cl)cc23)C[C@H]1C (atropisomer, axis not shown) [Compound 249, 1-((2R,5S)-4-(2-(2-(1H-imidazol-1-yl)ethoxy)-6-chloro-8-fluoro-7-((S)-2-fluoro-6-hydroxyphenyl)quinazolin-4-yl)-2,5-dimethylpiperazin-1-yl)prop-2-en-1-one] | +++ (+++ indicates binding activity greater than 90%) |  |
| C=CC(=O)N1C[C@H](C)N(c2nc(N3CC(N(C)C)C3)nc3c(F)c(-c4cc(O)cc5ccccc45)c(C(F)(F)F)cc23)C[C@H]1C (atropisomer, axis not shown) [Compound 255, 1-((2R,5S)-4-(2-(3-(dimethylamino)azetidin-1-yl)-8-fluoro-7-((R)-3-hydroxynaphthalen-1-yl)-6-(trifluoromethyl)quinazolin-4-yl)-2,5-dimethylpiperazin-1-yl)prop-2-en-1-one] | +++ (+++ indicates binding activity greater than 90%) |  |
| C=CC(=O)N1C[C@H](C)N(c2nc(N3CC(N(C)C)C3)nc3c(F)c(-c4cc(O)cc5ccccc45)c(C(F)(F)F)cc23)C[C@H]1C (atropisomer, axis not shown) [Compound 256, 1-((2R,5S)-4-(2-(3-(dimethylamino)azetidin-1-yl)-8-fluoro-7-((S)-3-hydroxynaphthalen-1-yl)-6-(trifluoromethyl)quinazolin-4-yl)-2,5-dimethylpiperazin-1-yl)prop-2-en-1-one] | + (+ indicates binding activity greater than 0% and up to 50%) |  |
